Measurements taken from US11517645B2, “Bone-tendon graft biomaterial, use as a medical device and method of making same” (The Board of Trustees of the Leland Stanford Junior …, priority 2016, dated 2022).

Assays:
C2C12 cells [1] = experiment: ALP staining, C2C12 osteoblast differentiation on QHM polymers with BMP-2 in media; type: cell-based, mouse; details: 25 μM blebbistatin
Description: ALP activity was detected according to the manufacturer's instructions (Sigma Aldrich, St. Louis, Mo.) as previously described with minor modifications^18,19.
For studies on the effect of Young's moduli on osteoblast differentiation (using uniform QHM polymer samples), C2C12 cells were seeded into 24 well plates containing uncoated QHM polymer samples (circular discs approximately 1 cm in diameter) at a density of 7.47×10^4 cells per cm^2 overnight in DMEM, 10% FBS and 1% PS media. […] Media were changed every 48 h. ALP staining was performed at 4, 8 and 14 days.
For studies on the effect of Young's moduli on osteoblast differentiation (using 0 s:300 s UV mechanically-graded QHM polymer samples), C2C12 cells were seeded into 24 well plates containing uncoated QHM polymer samples (rectangular specimens measuring approximately 0.5 cm×1 cm) at a density of 7.47×10^4 cells per cm^2 overnight in DMEM, 10% FBS and 1% PS media. […] Media were changed every 48 h. ALP staining were performed at 3 days post-seeding.
At designated time points, cells were fixed for 1 min in 3.7% formaldehyde and samples were incubated with ALP stain for 1 h. Color images of samples were acquired using an inverted Zeiss AxioObserver Z1 microscope equipped with an AxioCam ICC color camera and a Nikon D70 Digital camera (Nikon Corp., Tokyo, Japan). Where required, the ALP-stained images were quantified by calculating the average pixel intensity in Adobe Photoshop 7.0 as previously described^18,19.

C2C12 cells [2] = experiment: SCX immunofluorescence, C2C12 tenocyte differentiation on QHM polymers; type: cell-based, mouse; details: fibrin-coated QHM polymers in vitro, 3 days
Description: (§1) Immunofluorescence staining was performed as previously described with minor modifications^18,19.
For studies on the effect of Young's moduli on osteoblast or tenocyte differentiation (using uniform or 0 s:300 s UV mechanically-graded QHM polymer samples), C2C12 cells were seeded into 24 well plates containing uncoated QHM polymer samples (circular discs approximately 1 cm in diameter or rectangular specimens measuring approximately 0.5 cm×1 cm) at a density of 7.47×10^4 cells per cm^2 overnight in DMEM, 10% FBS and 1% PS media. […] Media were changed every 48 h. SCX staining was performed at 3 days post-seeding. RUNT-RELATED TRANSCRIPTION FACTOR-2 (RUNX-2) or OSTEOCALCIN (OCN) staining was performed at 4 days post-seeding. […]
(§2) Samples were permeabilized with 0.2% Triton X-100 (Sigma Aldrich, St. Louis, Mo.), washed three times in wash buffer (PBS and 0.1% BSA) and blocked with 10% donkey serum (Jackson Immunoresearch, West Gove, Pa.) for 1 h at room temperature. […] Lastly, cells were rinsed five times with wash buffer (5 min each) and fluorescence images were acquired on an inverted Zeiss AxioObserver Z1 microscope equipped with an X-Cite® Series 120Q metal halide lamp, appropriate filters and an AxioCam MRm camera.

C2C12 cells [3] = experiment: TENASCIN C and TENOMODULIN immunofluorescence, C2C12 on TCPS with FGF-2; type: cell-based, mouse; details: 50 or 100 ng/mL FGF-2, TCPS, 3 days
Description: as §1
For in vitro studies not involving QHM polymers, C2C12 cells were seeded into 24 well plates at a density of 7.47×10^4 cells per cm^2 in DMEM, 10% FBS, 1% PS media. The following day (Day 0), the media were changed to DMEM, 10% FBS, 1% PS with 0, 50 or 100 ng/mL FGF-2. Media were changed every 48 h. Cells were fixed in 4% paraformaldehyde (Electron Microscopy Sciences, Hatfield, Pa.) for 15 min and TENOMODULIN or TENASCIN C staining was performed at 3 days post-seeding.
as §2

C57BL-6J mice = experiment: Mouse subcutaneous implantation of growth factor-biopatterned QHM grafts; type: in vivo; details: 3 μg patterned on fibrin-coated QHM polymer, 14 days subcutaneous
Description: Mouse subcutaneous surgeries were performed in accordance with the guidelines established by Stanford University's Administrative Panel on Laboratory Animal Care. Wild-type C57BL-6J mice (Charles River Laboratories, Wilmington, Mass.) between 8 and 12 weeks of age (20-30 g) were used in this study. All mice were maintained in the Stanford Animal Facility, with a 12:12 h light-dark cycle and free access to standard laboratory food and water. Mice were anesthetized by inhalation with isoflurane (4% for induction, 2% for maintenance, Abbott Laboratories, Chicago) as well as administered 0.05 mg/kg Buprenorphine (Hospira Inc., Lake Forest, Ill.) and 25 mg/kg Cefazolin (Thermo Fisher Scientific, Waltham, Mass.) as an analgesic and anti-infective, respectively. Grafts (Square specimens 6×6×1 mm) were comprised of 0 s UV and 300 s UV QHM polymer regions (each measuring 3×3×1 mm) biopatterned with 1) no growth factor, 2) 3 μg FGF-2 on 0 s UV QHM polymer region and 3 μg BMP-2 on 300 s UV QHM polymer region or 3) 3 μg GDF-7 on 0 s UV QHM polymer region and 3 μg BMP-2 on 300 s UV QHM polymer region. Under sterile conditions, a 2.5 cm skin incision was made and grafts were sutured subcutaneously to the skin using 3-0 Nylon sutures (Oasis, Med-Vet International, Mettawa, Ill.) in a bilateral manner. Subsequently, the skin was re-approximated and closed with 3-0 Nylon sutures. […]

Molecule	Effect on BMP-2-induced ALP activity on QHM polymers (C2C12 cells [1]; 4 days)	Effect on C2C12 ALP activity on TCPS (C2C12 cells [1]; 4 days)	Inhibitory effect on ALP activity (C2C12 cells [1]; 8 days)	Inhibitory effect on ALP activity (C2C12 cells [1]; 14 days)	C2C12 SCX expression on FGF-2 patterns relative to off pattern controls (C2C12 cells [2])	TENASCIN C expression relative to untreated controls (C2C12 cells [3])	TENOMODULIN expression relative to untreated controls (C2C12 cells [3])	Tissue formed on growth factor pattern in vivo (C57BL-6J mice)
Cc1ccc2c(c1)C(=O)C1(O)CCN(c3ccccc3)C1=N2 (stereo not drawn) [blebbistatin]	inhibited slightly	did not inhibit	occurred only on 0 s UV QHM polymer	no longer observed	–	–	–	–
FGF-2: fibroblast growth factor-2 (Peprotech), tendon-promoting cue	–	–	–	–	largely increased	increased TENASCIN C expression	increased TENOMODULIN expression	reminiscent of immature tendon
GDF-7: growth and differentiation factor-7 (Sino Biological), tendon-promoting cue (protein, UniProt Q7Z4P5 322-450, looked up) Growth/differentiation factor …: TALAGTRTAQGSGGGAGRGHGRRGRSRCSRKPLHVDFKELGWDDWIIAPLDYEAYHCEGLCDFPLRSHLEPTNHAIIQTLLNSMAPDAAPASCCVPARLSPISILYIDAANNVVYKQYEDMVVEACGCR	–	–	–	–	–	–	–	reminiscent of immature tendon
